Patent US11412737B2, “Mixtures of beflubutamid or optically enriched forms thereof with a second herbicide” (FMC Corporation, priority 2016, dated 2022)
Values joined by “and” are separate entries in the source; they are usually repeats but may differ in a detail not shown here. Equal values may be shown once.

What was measured:
Assay in all cases: pre-emergence test, weed control
Format in all cases: in vivo
velvetleaf (IPOHE) = settings: pre-emergent, 21 DAT, rate g ai/ha by row: r4 94, r5 125, r6 250, r7 125, r8 250, r9 500, r10 94+125, r11 125+125, r12 94+250, r13 125+250, r14 94+500, r15 125+500
Large crabgrass (DIGSA) = settings: pre-emergent, 28 DAT; rate g ai/ha by row: r4 94, r5 50, r6 100, r7 52.5, r8 70, r9 94+52.5, r10 94+70, r11 50+52.5, r12 50+70, r13 100+52.5, r14 100+70
How it was run: (§1)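 Steps: sow seed in furrows and cover with soil, water well, apply diluted compound over the soil surface (30 gallons per acre), move flats to the greenhouse. Evaluate each species at 28 DAT, wheat also at 21 DAT, as percent control versus untreated flats.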

Hemp sesbania (SEHE8) = settings: pre-emergent, 28 DAT; BFL at 187.5 g, PYX at 90 g, combination of both
How it was run: as §1

Rice flatsedge (CYPIR) = settings: pre-emergent, 28 DAT; rate g ai/ha by row: r5 94, r6 125, r7 250, r8 3.28, r9 6.56, r10 13.1, r11 94+3.28, r12 94+6.56, r13 94+13.1, r14 125+3.28, r15 125+6.56, r16 125+13.1
How it was run: as §1

Yellow foxtail (SETLU) = settings: pre-emergent, 28 DAT, (−)-BFL >95% e.e., rate g ai/ha by row: r6 62, r7 125, r8 125, r9 250, r10 445, r11 890, r12 45, r13 90, r14 62+125, r15 125+125, r16 62+250, r17 125+250, r18 62+445, r19 125+445, r20 62+890, r21 125+890, r22 62+45, r23 125+45, r24 62+90, r25 125+90
How it was run: as §1

SMILES | percentage of weed control, Morningglory IPOHE (velvetleaf (IPOHE); 94 g ai/ha) [%] | percentage of weed control, Morningglory IPOHE (velvetleaf (IPOHE); 250 g ai/ha) [%] | percentage of weed control, DIGSA (Large crabgrass (DIGSA)) [%] | control of hemp sesbania (Hemp sesbania (SEHE8)) [%] | percentage of weed control, Rice flatsedge CYPIR (Rice flatsedge (CYPIR)) | percentage of weed control, SETLU (Yellow foxtail (SETLU); 125 g ai/ha) [%] | percentage of weed control, SETLU (Yellow foxtail (SETLU); 250 g ai/ha) [%]
CCC(Oc1ccc(F)c(C(F)(F)F)c1)C(=O)NCc1ccccc1 (racemic) [BFL, 2-[4-fluoro-3-(trifluoromethyl)phenoxy]-N-(phenylmethyl)butanamide] | 10 | 8 | 25 | 28 | 71% and 88% and 100% |  | 
CC1(C)CON(Cc2ccc(Cl)cc2Cl)C1=O [DCI, 2-(2,4-dichlorophenyl)methyl-4,4-dimethyl-3-isoxazolidinone] |  |  |  |  |  | 75 | 96
